{
  "source": "patent US20220273659A1",
  "about": "“HETEROCYCLIC COMPOUNDS AS KINASE INHIBITORS” (NUVATION BIO INC., priority 2019, published 2022)",
  "key": {"CDK9 (cyclin K)": {"target": "T1, CDK9 (cyclin K) (Homo sapiens, UniProt P50750)", "T1 construct": "purchased Invitrogen Life Technologies (assay service)", "T1 sequence (P50750 whole entry)": "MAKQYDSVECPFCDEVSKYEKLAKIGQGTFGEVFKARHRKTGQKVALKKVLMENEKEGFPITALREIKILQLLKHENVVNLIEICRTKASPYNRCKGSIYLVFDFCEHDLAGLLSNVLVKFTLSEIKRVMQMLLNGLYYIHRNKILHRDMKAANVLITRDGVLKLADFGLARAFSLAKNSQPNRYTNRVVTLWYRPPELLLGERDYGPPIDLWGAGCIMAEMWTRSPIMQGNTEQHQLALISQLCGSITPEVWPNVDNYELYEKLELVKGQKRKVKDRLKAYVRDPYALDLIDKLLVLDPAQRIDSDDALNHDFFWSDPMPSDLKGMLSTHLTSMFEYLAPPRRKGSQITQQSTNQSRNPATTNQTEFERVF", "T1 sequence (O75909 whole entry partner)": "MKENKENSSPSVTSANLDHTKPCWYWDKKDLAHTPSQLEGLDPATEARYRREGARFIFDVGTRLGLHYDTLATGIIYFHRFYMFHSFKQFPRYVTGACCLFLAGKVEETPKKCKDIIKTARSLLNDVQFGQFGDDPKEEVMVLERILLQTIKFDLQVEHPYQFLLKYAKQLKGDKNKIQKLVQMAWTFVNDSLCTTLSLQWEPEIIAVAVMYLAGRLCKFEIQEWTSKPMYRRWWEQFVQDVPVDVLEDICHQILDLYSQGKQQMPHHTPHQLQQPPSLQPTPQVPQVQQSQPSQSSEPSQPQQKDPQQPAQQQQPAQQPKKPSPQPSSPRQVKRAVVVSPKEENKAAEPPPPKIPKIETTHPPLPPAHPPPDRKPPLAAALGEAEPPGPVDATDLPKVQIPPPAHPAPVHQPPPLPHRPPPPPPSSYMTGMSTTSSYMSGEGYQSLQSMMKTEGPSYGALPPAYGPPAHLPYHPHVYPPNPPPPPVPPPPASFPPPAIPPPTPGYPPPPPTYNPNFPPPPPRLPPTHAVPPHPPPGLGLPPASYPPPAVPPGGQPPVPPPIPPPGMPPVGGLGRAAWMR", "test": "LanthaScreen Eu Kinase Binding Assay", "experimental": "(§1) 0.16 μL of 100×test compound in 100% DMSO (at specific solutions) were mixed with 3.84 μL of Kinase Buffer (50 mM HEPES pH 7.5, 0.01% BRIJ-35, 10 mM MgCl2, 1 mM EGTA), 8.0 μL of 2× Kinase (5 nM)/Antibody (Eu-anti-His, 2 nM) Mixture and 4.0 μL of 4×Tracer (Tracer 236, 100 nM). The plates were shaken for 30 seconds, and incubated for 60 minutes at room temperature. The plates were read on fluorescence plate reader with Dual emission at 615 nm and 665 nm.\n(§2) The following equations were used for LanthaScreen Eu Kinase Binding Assay Data Analysis. Percent inhibition (100-% activity) was fitted to the “four-parameter logistic model” in XLfit for determination of IC50 values."}, "CDK2 (cyclin E1)": {"target": "T2, CDK2 (cyclin E1) (Homo sapiens, UniProt P24941)", "T2 construct": "purchased Invitrogen Life Technologies (assay service)", "test": "LanthaScreen Eu Kinase Binding Assay", "details": "read-out: CDK2/E IC50", "experimental": "as §1, with “Kinase (2.5” for “Kinase (5”, “nM)/Antibody (Eu-anti-GST,” for “nM)/Antibody (Eu-anti-His,”\nas §2"}},
  "note": "pIC50: −log10 of the molar value.",
  "data": [
    {"compound": "N#Cc1cc2cnc(Nc3ccc4c(c3)CCNC4)nc2n(C2CCCC2)c1=O", "note": "[Compound No. 31, 8-cyclopentyl-7-oxo-2-((1,2,3,4-tetrahydroisoquinolin-6-yl)amino)-7,8-dihydropyrido[2,3-d]pyrimidine-6-carbonitrile]", "values": [
      {"measurement": "pIC50", "setting": "CDK9 (cyclin K)", "value": 7.70},
      {"measurement": "pIC50", "setting": "CDK2 (cyclin E1)", "value": 7.13}
    ]}
  ]
}
